Assay results reported in the supplement of paper PMC10307832.

What was measured:
Assay in all cases: relative viability (nuclei count vs DMSO), 5 days (fraction); higher = more cells survive
Dactolisib + OSI-027 = compound: Cn1c(=O)n(-c2ccc(C(C)(C)C#N)cc2)c2c3cc(-c4cnc5ccccc5c4)ccc3ncc21 [Dactolisib] + COc1cccc2cc(-c3nc([C@H]4CC[C@H](C(=O)O)CC4)n4ncnc(N)c34)[nH]c12 [OSI-027] (partner 0.5 µM)
Method in brief: (§1)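 Values are medians from duplicate plates. Each reflects relative viability, defined as the nuclei count of treated wells over that of vehicle wells. Lung cancer cell lines in 1536-well plates were pin-tool dosed one day after seeding with one drug alone or with a fixed anchor-drug dose plus five library-drug doses (not always all listed) in √10 steps, then fixed, stained and imaged at 4× after 5 days.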

Dactolisib + Linsitinib = compound: Cn1c(=O)n(-c2ccc(C(C)(C)C#N)cc2)c2c3cc(-c4cnc5ccccc5c4)ccc3ncc21 [Dactolisib] + C[C@]1(O)C[C@@H](c2nc(-c3ccc4ccc(-c5ccccc5)nc4c3)c3c(N)nccn32)C1 [Linsitinib] (partner 1 µM)
Method in brief: as §1

Dactolisib + Alpelisib = compound: Cn1c(=O)n(-c2ccc(C(C)(C)C#N)cc2)c2c3cc(-c4cnc5ccccc5c4)ccc3ncc21 [Dactolisib] + Cc1nc(NC(=O)N2CCC[C@H]2C(N)=O)sc1-c1ccnc(C(C)(C)C(F)(F)F)c1 [Alpelisib] (partner 2 µM)
Method in brief: as §1

Dactolisib + Vorinostat = compound: Cn1c(=O)n(-c2ccc(C(C)(C)C#N)cc2)c2c3cc(-c4cnc5ccccc5c4)ccc3ncc21 [Dactolisib] + O=C(CCCCCCC(=O)Nc1ccccc1)NO [Vorinostat] (partner 1 µM)
Method in brief: as §1

Row | Cell Line | relative viability (Dactolisib + OSI-027; first compound 0.002 µM) | relative viability (Dactolisib + OSI-027; first compound 0.006325 µM) | relative viability (Dactolisib + OSI-027; first compound 0.02 µM) | relative viability (Dactolisib + OSI-027; first compound 0.06325 µM) | relative viability (Dactolisib + OSI-027; first compound 0.2 µM) | relative viability (Dactolisib + Linsitinib; first compound 0.002 µM) | relative viability (Dactolisib + Linsitinib; first compound 0.006325 µM) | relative viability (Dactolisib + Linsitinib; first compound 0.02 µM) | relative viability (Dactolisib + Linsitinib; first compound 0.06325 µM) | relative viability (Dactolisib + Linsitinib; first compound 0.2 µM) | relative viability (Dactolisib + Alpelisib; first compound 0.002 µM) | relative viability (Dactolisib + Alpelisib; first compound 0.006325 µM) | relative viability (Dactolisib + Alpelisib; first compound 0.02 µM) | relative viability (Dactolisib + Alpelisib; first compound 0.06325 µM) | relative viability (Dactolisib + Alpelisib; first compound 0.2 µM) | relative viability (Dactolisib + Vorinostat; first compound 0.002 µM) | relative viability (Dactolisib + Vorinostat; first compound 0.006325 µM) | relative viability (Dactolisib + Vorinostat; first compound 0.02 µM) | relative viability (Dactolisib + Vorinostat; first compound 0.06325 µM) | relative viability (Dactolisib + Vorinostat; first compound 0.2 µM)
1 | HARA | 0.576 | 0.525 | 0.602 | 0.322 | 0.264 | 1 | 0.884 | 0.842 | 0.573 | 0.211 | 1.15 | 0.78 | 0.809 | 0.594 | 0.206 | 0.578 | 0.461 | 0.523 | 0.41 | 0.11
2 | NCI-H2087 | 1.05 | 0.572 | 0.53 | 0.43 | 0.252 | 1.02 | 0.955 | 0.919 | 0.555 | 0.429 | 1.17 | 0.994 | 0.805 | 0.574 | 0.668 | 0.731 | 0.458 | 0.501 | 0.176 | 0.339
3 | NCI-H1437 | 0.849 | 0.903 | 0.883 | 0.834 | 0.586 | 1.05 | 0.985 | 0.981 | 0.596 | 0.315 | 1 | 0.991 | 0.918 | 0.836 | 0.81 | 0.865 | 0.836 | 0.802 | 0.68 | 0.552
4 | NCI-H650 | 0.509 | 0.518 | 0.641 | 0.592 | 0.372 | 1.26 | 0.752 | 0.697 | 0.576 | 0.415 | 1.19 | 0.964 | 1.01 | 0.46 | 0.507 | 0.414 | 0.501 | 0.469 | 0.306 | 0.179
5 | COR-L23 | 0.917 | 0.796 | 0.59 | 0.289 | 0.259 | 1.01 | 0.8 | 0.448 | 0.17 | 0.139 | 0.8 | 0.646 | 0.419 | 0.199 | 0.149 | 0.367 | 0.363 | 0.277 | 0.157 | 0.161
6 | COR-L 105 | 0.776 | 0.619 | 0.478 | 0.385 | 0.314 | 1.17 | 0.653 | 0.948 | 0.362 | 0.312 | 1.02 | 0.915 | 1.12 | 0.436 | 0.297 | 0.677 | 0.88 | 0.828 | 0.402 | 0.394
7 | LK-2 | 0.176 | 0.205 | 0.213 | 0.207 | 0.159 | 0.389 | 0.508 | 0.507 | 0.169 | 0.251 | 0.934 | 1.03 | 0.793 | 0.526 | 0.416 | 0.317 | 0.247 | 0.294 | 0.239 | 0.213
8 | 201T | 0.715 | 0.749 | 0.682 | 0.747 | 0.509 | 1.03 | 1.08 | 0.979 | 0.862 | 0.73 | 1.01 | 0.994 | 0.986 | 0.98 | 0.688 | 0.987 | 0.981 | 0.976 | 0.622 | 0.729
9 | HCC-44 | 0.492 | 0.559 | 0.634 | 0.439 | 0.466 | 0.707 | 0.741 | 0.431 | 0.315 | 0.265 | 0.907 | 0.722 | 0.601 | 0.337 | 0.3 | 1.12 | 1.14 | 1.21 | 1.14 | 0.885
10 | NCI-H596 | 0.694 | 0.653 | 0.692 | 0.399 | 0.315 | 1.18 | 0.935 | 0.924 | 0.523 | 0.387 | 0.461 | 0.474 | 0.386 | 0.322 | 0.259 | 0.48 | 0.577 | 0.521 | 0.313 | 0.222
11 | H3255 | 0.724 | 0.469 | 0.623 | 0.609 | 0.488 | 1.13 | 0.919 | 0.967 | 0.626 | 0.416 | 0.767 | 0.709 | 0.653 | 0.481 | 0.314 | 0.936 | 0.783 | 0.706 | 0.811 | 0.594
12 | NCI-H647 | 0.734 | 0.863 | 0.499 | 0.144 | 0.184 | 1.15 | 0.898 | 0.736 | 0.192 | 0.146 | 1.33 | 0.811 | 0.543 | 0.164 | 0.125 | 0.369 | 0.308 | 0.265 | 0.123 | 0.0977
13 | NCI-H2023 | 0.412 | 0.357 | 0.344 | 0.15 | 0.108 | 0.697 | 0.523 | 0.622 | 0.154 | 0.133 | 0.54 | 0.56 | 0.553 | 0.147 | 0.153 | 0.305 | 0.479 | 0.439 | 0.098 | 0.11
14 | NCI-H23 | 0.683 | 0.577 | 0.564 | 0.308 | 0.385 | 0.553 | 0.598 | 0.368 | 0.243 | 0.287 | 0.629 | 0.607 | 0.615 | 0.356 | 0.303 | 0.512 | 0.49 | 0.462 | 0.18 | 0.176
15 | NCI-H1944 | 0.467 | 0.418 | 0.418 | 0.281 | 0.195 | 1.36 | 1.17 | 1.06 | 0.524 | 0.428 | 0.898 | 0.796 | 0.72 | 0.384 | 0.279 | 0.576 | 0.56 | 0.492 | 0.29 | 0.223
16 | NCI-H1793 | 0.317 | 0.26 | 0.257 | 0.212 | 0.157 | 0.813 | 0.559 | 0.321 | 0.183 | 0.158 | 0.588 | 0.4 | 0.241 | 0.21 | 0.157 | 0.794 | 0.358 | 0.293 | 0.205 | 0.197
17 | NCI-H520 | 0.285 | 0.303 | 0.308 | 0.204 | 0.189 | 1.02 | 0.731 | 0.53 | 0.191 | 0.186 | 1.11 | 0.657 | 0.753 | 0.263 | 0.194 | 0.747 | 0.596 | 0.416 | 0.212 | 0.151
18 | NCI-H460 | 0.829 | 0.661 | 0.615 | 0.119 | 0.153 | 0.933 | 0.654 | 0.434 | 0.0937 | 0.0501 | 0.723 | 0.352 | 0.35 | 0.0712 | 0.0542 | 0.643 | 0.659 | 0.723 | 0.127 | 0.173
19 | EKVX | 0.678 | 0.655 | 0.697 | 0.536 | 0.389 | 0.896 | 0.908 | 0.962 | 0.682 | 0.327 | 0.937 | 0.878 | 0.759 | 0.463 | 0.369 | 0.794 | 0.72 | 0.657 | 0.359 | 0.273
20 | NCI-H358 | 0.805 | 0.683 | 0.585 | 0.254 | 0.173 | 0.848 | 0.641 | 0.549 | 0.293 | 0.211 | 0.951 | 0.786 | 0.718 | 0.3 | 0.18 | 0.68 | 0.652 | 0.503 | 0.154 | 0.165
21 | EPLC-272H | 0.34 | 0.288 | 0.356 | 0.334 | 0.3 | 1.16 | 1.09 | 0.969 | 0.575 | 0.491 | 0.961 | 0.752 | 0.779 | 0.527 | 0.465 | 0.571 | 0.409 | 0.261 | 0.36 | 0.159
22 | NCI-H1395 | 0.666 | 0.646 | 0.709 | 0.647 | 0.521 | 0.91 | 0.844 | 0.998 | 0.653 | 0.834 | 0.863 | 0.757 | 1.23 | 0.602 | 0.511 | 0.423 | 0.622 | 0.554 | 0.496 | 0.467
23 | NCI-H2126 | 0.92 | 0.733 | 0.687 | 0.618 | 0.458 | 0.807 | 0.662 | 0.674 | 0.521 | 0.422 | 0.751 | 0.702 | 0.639 | 0.518 | 0.425 | 0.856 | 0.763 | 0.594 | 0.427 | 0.426
24 | LXF-289 | 0.93 | 0.865 | 0.821 | 0.692 | 0.684 | 0.952 | 0.98 | 0.987 | 0.757 | 0.658 | 1.12 | 0.973 | 1.01 | 0.927 | 0.597 | 0.879 | 0.789 | 0.741 | 0.815 | 0.565
25 | NCI-H2009 | 0.74 | 0.659 | 0.754 | 0.404 | 0.266 | 1.21 | 1.18 | 1.26 | 0.639 | 0.497 | 1.21 | 1.19 | 1.14 | 0.676 | 0.532 | 0.746 | 0.719 | 0.704 | 0.568 | 0.202
26 | NCI-H2405 | 0.67 | 0.652 | 0.685 | 0.543 | 0.464 | 0.936 | 0.76 | 0.755 | 0.323 | 0.275 | 0.683 | 0.647 | 0.646 | 0.359 | 0.273 | 1.09 | 1.02 | 0.839 | 0.391 | 0.277
